According to ChEMBL document CHEMBL1125979, “Phosphinic acid inhibitors of 3-hydroxy-3-methylglutaryl-coenzyme a reductase” (Bioorg Med Chem Lett, 1991):

Experiments:
[1] = system: HepG2; test: The compound was tested for inhibition of cholesterol biosynthesis in human hepatoma G2 cell line; showed relatively low potency; assay type: functional, cell-based
[2] = target: T1, 3-hydroxy-3-methylglutaryl-coenzyme A reductase (Homo sapiens, UniProt P04035); test: The inhibitory activity against purified recombinant human HMG-CoA reductase was evaluated
T1 sequence (P04035 whole entry): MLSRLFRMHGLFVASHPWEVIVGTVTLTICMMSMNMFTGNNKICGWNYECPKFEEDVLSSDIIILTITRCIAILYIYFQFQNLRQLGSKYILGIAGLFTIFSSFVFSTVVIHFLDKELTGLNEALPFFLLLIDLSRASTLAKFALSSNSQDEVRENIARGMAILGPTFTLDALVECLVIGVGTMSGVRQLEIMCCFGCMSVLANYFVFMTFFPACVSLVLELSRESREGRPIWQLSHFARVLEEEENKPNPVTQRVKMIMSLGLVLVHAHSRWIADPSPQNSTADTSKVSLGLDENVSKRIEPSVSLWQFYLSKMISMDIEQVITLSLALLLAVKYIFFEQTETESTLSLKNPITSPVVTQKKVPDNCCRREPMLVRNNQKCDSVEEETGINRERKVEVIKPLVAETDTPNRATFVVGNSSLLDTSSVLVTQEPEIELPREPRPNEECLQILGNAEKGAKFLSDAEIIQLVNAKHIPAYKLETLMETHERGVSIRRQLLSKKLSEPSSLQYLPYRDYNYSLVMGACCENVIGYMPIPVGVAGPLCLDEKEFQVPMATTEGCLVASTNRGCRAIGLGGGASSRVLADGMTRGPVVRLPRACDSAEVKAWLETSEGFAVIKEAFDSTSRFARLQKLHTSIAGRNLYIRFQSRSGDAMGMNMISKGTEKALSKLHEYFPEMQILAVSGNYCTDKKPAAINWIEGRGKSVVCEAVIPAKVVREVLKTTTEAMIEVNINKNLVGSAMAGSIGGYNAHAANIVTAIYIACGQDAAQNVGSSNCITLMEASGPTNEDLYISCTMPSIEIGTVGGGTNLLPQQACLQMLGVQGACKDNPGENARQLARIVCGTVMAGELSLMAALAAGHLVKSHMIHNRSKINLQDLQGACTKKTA

[3] = system: HepG2; test: The compound was tested for inhibition of cholesterol biosynthesis in human hepatoma G2 cell line; assay type: functional, cell-based

IC50 [1] [nM] | Ki [2] [nM] | IC50 [3] [nM] | Compound
> 1000 | 16 |  | O=C(O)C[C@H](O)CP(=O)(O)CCc1c(Cl)cc(Cl)cc1OCc1ccccc1
 | 3 |  | O=C(O)C[C@H](O)C[C@H](O)CCc1c(Cl)cc(Cl)cc1OCc1ccccc1
 |  | 100 | CC(C)(C)C(=O)OCOC(=O)CC(O)CP(=O)(CCc1c(Cl)cc(Cl)cc1OCc1ccccc1)OCOC(=O)C(C)(C)C (stereo not given)
 |  | 100 | COC(=O)CC(O)CP(=O)(O)CCc1c(Cl)cc(Cl)cc1OCc1ccccc1 (stereo not given)
